In ChEMBL document CHEMBL2040790 (Bioorg Med Chem Lett, 2012) one finds EC50 data, which are given here for 68 compounds.

The structures appear in SMILES notation. pEC50: −log10 of the molar value.

For one test, the system named is Vaccinia virus. Put plainly: Antiviral activity against Vaccinia virus. It counts as functional, organism-based. Conditions: Orthopoxvirus vaccinia.
A further test relates to La Crosse virus. Put plainly: Antiviral activity against La Crosse virus infected in african green monkey Vero cells assessed as inhibition of virus-induced cytopathic effect by fluorometric analysis. It counts as functional, organism-based.

Regarding `CC(C)(C)c1ccc(C(=O)NC(=S)Nc2ccc(S(=O)(=O)N3CCCCC3)cc2)cc1`, the pEC50 in the test with Vaccinia virus and in the test with La Crosse virus was below 4.60 throughout. With `CC(C)(C)c1ccc(C(=O)NC(=S)Nc2cccc([N+](=O)[O-])c2)cc1`, the pEC50 in the test on Vaccinia virus and in the test on La Crosse virus was below 4.60 throughout. With `CN(Cc1ccccc1)S(=O)(=O)c1ccc(NC(=S)NC(=O)c2ccc(C(C)(C)C)cc2)cc1`, the pEC50 with Vaccinia virus and with La Crosse virus was below 4.60 in each case. In the case of `COc1cc(NC(=S)NC(=O)c2ccc(C(C)(C)C)cc2)ccc1NCc1ccccc1Cl`, the pEC50 in the test with Vaccinia virus was 6.47; with La Crosse virus, 6.70. For `COc1cc(N/C(=N/C(=O)c2ccc(C(C)(C)C)cc2)SCC(=O)OC(C)(C)C)ccc1NC(=O)c1ccccc1Cl`, in that order: below 4.60 and below 4.60. For `CCS/C(=N\C(=O)c1ccc(C(C)(C)C)cc1)Nc1ccc(NC(=O)c2ccccc2Cl)c(OC)c1`, in that order: 6.64 and 6.52. For `COc1cc(NC(=S)NC(=O)c2ccc(C(C)(C)C)cc2)ccc1NC(N)=O`, in that order: below 4.60 and 5.31. With `COc1cc(NC(=S)NC(=O)c2ccc(C(C)(C)C)cc2)ccc1NC(=O)c1ccc(N)cc1`, the pEC50 with Vaccinia virus was 4.70; with La Crosse virus it was below 4.60. The matching figures for `CNc1ccc(NC(=S)NC(=O)c2ccc(C(C)(C)C)cc2)cc1`: 5.94 and 5.84.

With `CC(C)(C)c1ccc(C(=O)NC(=S)NC2CCCCC2)cc1`, the pEC50 in the test on Vaccinia virus is 5.31; in the test with La Crosse virus it was 5.43. The matching figures for `Cc1ccc(C)c(NC(=S)NC(=O)c2ccc(C(C)(C)C)cc2)c1`: 5.54 and below 4.60. The matching figures for `Cc1ccc(NC(=S)NC(=O)c2ccc(C(C)(C)C)cc2)c(C)c1`: 5.97 and 6.06. Take `COc1cc(NC(=S)NC(=O)c2ccc(C(C)(C)C)cc2)ccc1NC(=O)c1ccccc1N`: the pEC50 was 5.58 with Vaccinia virus and below 4.60 in the test with La Crosse virus. For `CC(C)(C)c1ccc(C(=O)NC(=S)Nc2cccc(C(F)(F)F)c2Cl)cc1`, in that order: 5.74 and 6.07.

Consider `CC(C)(C)c1ccc(C(=O)NC(=S)Nc2ccc(C(=O)O)cc2)cc1`, for which the pEC50 in the test with Vaccinia virus and in the test on La Crosse virus was below 4.60 throughout.

For the compound `CC(C)(C)c1ccc(C(=O)NC(=S)Nc2ccc(S(=O)(=O)Nc3nccs3)cc2)cc1`, the negative-log EC50 (pEC50) in the test on Vaccinia virus and with La Crosse virus was below 4.60 each time. Regarding `COc1cc(NC(=S)NC(=O)c2ccc(C(C)(C)C)cc2)ccc1NC(=O)c1cccnc1`, in the test on Vaccinia virus, the negative-log EC50 (pEC50) was 5.76.

For the compound `CC(C)(C)c1ccc(C(=O)NC(=S)Nc2ccc(Cl)cc2)cc1`, the pEC50 in the test with Vaccinia virus and in the test on La Crosse virus was below 4.60 each time.

In the case of `COc1cc(N/C(=N/C#N)NC(=O)c2ccc(C(C)(C)C)cc2)ccc1NC(=O)c1ccccc1Cl`, in the test with Vaccinia virus, the pEC50 was below 4.60. Turning to `Cc1ccc(NC(=S)NC(=O)c2ccc(C(C)(C)C)cc2)cc1`, the pEC50 in the test with Vaccinia virus is 5.72; with La Crosse virus, 5.31.

With `CC(C)(C)c1ccc(C(=O)NC(=S)Nc2ccc(S(=O)(=O)NC3CCCCC3)cc2)cc1`, the pEC50 in the test with Vaccinia virus and in the test on La Crosse virus was below 4.60 in each case.

For the compound `CCN(C(=S)NC(=O)c1ccc(C(C)(C)C)cc1)c1ccc(NC(=O)c2ccccc2Cl)c(OC)c1`, the pEC50 in the test on Vaccinia virus is 5.00; in the test with La Crosse virus it was below 4.60. For `CC(C)(C)c1ccc(C(=O)NC(=S)Nc2ccccn2)cc1`, in that order: below 4.60 and below 4.60. The matching figures for `Cc1cccc(NC(=S)NC(=O)c2ccc(C(C)(C)C)cc2)c1`: 6.00 and 5.88. The matching figures for `COC(=O)CC(=O)Nc1ccc(NC(=S)NC(=O)c2ccc(C(C)(C)C)cc2)cc1OC`: 4.73 and below 4.60. As for `COc1ccc(-c2csc(NC(=S)NC(=O)c3ccc(C(C)(C)C)cc3)n2)cc1OC`, the pEC50 with Vaccinia virus and with La Crosse virus was below 4.60 each time.

In the case of `COc1cc(NC(=S)NC(=O)c2ccc(C(C)(C)C)cc2)ccc1NC(=O)c1ncc[nH]1`, the negative logarithm of the EC50 (pEC50) with Vaccinia virus and in the test with La Crosse virus was below 4.60 throughout. Consider `CC(C)(C)c1ccc(C(=O)NC(=S)Nc2cccc(C(=O)O)c2)cc1`, for which the pEC50 in the test on Vaccinia virus and in the test on La Crosse virus was below 4.60 each time.

In the case of `CC(C)(C)c1ccc(C(=O)NC(=S)Nc2ccccc2N)cc1`, the negative-log EC50 (pEC50) with Vaccinia virus and in the test on La Crosse virus was below 4.60 in each case. As for `CC(C)(C)c1ccc(C(=O)NC(=S)Nc2ccc(NC(=O)c3ccccc3)cc2Cl)cc1`, the pEC50 with Vaccinia virus is 6.80; in the test on La Crosse virus, 7.10.

In the case of `CC(C)(C)c1ccc(C(=O)NC(=S)Nc2ccc(Nc3cccnc3)cc2)cc1`, the negative logarithm of the EC50 (pEC50) is 4.61 in the test on Vaccinia virus and below 4.60 with La Crosse virus. The matching figures for `COc1cc(NC(=S)NC(=O)c2ccc(C(C)(C)C)cc2)ccc1NC(=O)CCN(C)C`: below 4.60 and below 4.60. The matching figures for `Cc1cccc(NC(=S)NC(=O)c2ccc(C(C)(C)C)cc2)c1Cl`: 5.74 and 5.93. On to `COc1cc(NC(=S)NC(=O)c2ccc(C(C)(C)C)cc2)ccc1NC(=N)N`, for which the pEC50 in the test on Vaccinia virus and in the test with La Crosse virus was below 4.60 throughout. In the test with Vaccinia virus, `COc1cc(NC(=S)NC(=O)c2ccc(C(C)(C)C)cc2)ccc1NC(=O)c1ccncc1` showed a pEC50 of 5.69.

Regarding `COc1cc(NC(=S)NCc2ccc(C(C)(C)C)cc2)ccc1NC(=O)c1ccccc1Cl`, the pEC50 in the test with Vaccinia virus and in the test on La Crosse virus was below 4.60 each time. As to `COc1cc(NC(=S)NC(=O)c2ccc(C(C)(C)C)cc2)ccc1NC(=O)CCC(=O)O`, the pEC50 in the test on Vaccinia virus and with La Crosse virus was below 4.60 each time. For `Cc1ccc(NC(=S)NC(=O)c2ccc(C(C)(C)C)cc2)cc1C`, the values for the pEC50 with Vaccinia virus and in the test with La Crosse virus were 5.41 and 5.91, respectively. The matching figures for `COc1cc(NC(=S)NC(=O)c2ccc(C(C)(C)C)cc2)ccc1NC(=O)c1c[nH]cn1`: below 4.60 and below 4.60. In the case of `CC(C)(C)c1ccc(C(=O)NC(=S)Nc2ccc(Nc3ccncc3)cc2)cc1`, the pEC50 is below 4.60 in the test with Vaccinia virus and 5.11 with La Crosse virus.

Take `CC(C)(C)c1ccc(C(=O)NC(=S)Nc2ccc(N)cc2Cl)cc1`: the results for the pEC50 in the test on Vaccinia virus and in the test on La Crosse virus were 6.21 and 6.12, respectively. Turning to `CC(C)(C)c1ccc(C(=O)NC(=S)Nc2cccc(NC(=O)c3ccccc3Cl)c2)cc1`, the pEC50 with Vaccinia virus and in the test on La Crosse virus was below 4.60 throughout.

For the compound `COc1cc(N/C(=N/C(=O)c2ccc(C(C)(C)C)cc2)SCCN(C)C)ccc1NC(=O)c1ccccc1Cl`, the pEC50 in the test on Vaccinia virus and with La Crosse virus was below 4.60 in each case. Turning to `Cc1cccc(NC(=S)NC(=O)c2ccc(C(C)(C)C)cc2)c1C`, the negative-log EC50 (pEC50) in the test with Vaccinia virus was 5.74; with La Crosse virus, 5.59.

For the compound `COc1cc(NC(=S)NC(=O)c2ccc(C(C)(C)C)cc2)ccc1NC(=O)CC(=O)O`, the pEC50 in the test on Vaccinia virus and in the test on La Crosse virus was below 4.60 in each case. Turning to `Cc1ccccc1NC(=S)NC(=O)c1ccc(C(C)(C)C)cc1`, the pEC50 in the test with Vaccinia virus is 6.08; with La Crosse virus it was 6.20.

In the case of `CC(C)(C)c1ccc(C(=O)NC(=S)Nc2ccccc2[N+](=O)[O-])cc1`, the pEC50 in the test on Vaccinia virus is 5.44; with La Crosse virus, 5.43. With `CC(C)(C)c1ccc(C(=N)NC(=S)Nc2ccccc2Cl)cc1`, the pEC50 in the test on Vaccinia virus and in the test on La Crosse virus was below 4.60 each time.

For the compound `CC(C)(C)c1ccc(C(=O)NC(=S)Nc2ccc(Nc3ccccn3)cc2)cc1`, the pEC50 in the test with Vaccinia virus and in the test on La Crosse virus was below 4.60 in each case. As for `CC(C)(C)c1ccc(C(=O)NC(=S)Nc2cc(OC(F)(F)F)ccc2Cl)cc1`, the pEC50 with Vaccinia virus is 5.72; in the test with La Crosse virus it was below 4.60.

Take `Cc1cccc(Cl)c1NC(=S)NC(=O)c1ccc(C(C)(C)C)cc1`: the values for the pEC50 in the test with Vaccinia virus and in the test with La Crosse virus were 5.60 and 6.03, respectively. For `COc1ccc(NC(=S)NC(=O)c2ccc(C(C)(C)C)cc2)cc1`, in that order: 5.62 and below 4.60. The matching figures for `COc1cc(NC(=S)NC(=O)c2ccc(C(C)(C)C)cc2)ccc1NC(=N)c1ccccc1Cl`: 5.76 and 5.69. In the case of `COc1cc(NC(=S)NC(=O)c2ccc(C(C)(C)C)cc2)ccc1NC(=O)c1ccc2nc[nH]c2c1`, the pEC50 with Vaccinia virus and with La Crosse virus was below 4.60 each time. Compound `COc1cc(NC(=N)NC(=O)c2ccc(C(C)(C)C)cc2)ccc1NC(=O)c1ccccc1Cl` had a pEC50 in the test on Vaccinia virus below 4.60. As for `CC(C)(C)c1ccc(C(=O)NC(=S)Nc2cccnc2)cc1`, the pEC50 in the test with Vaccinia virus and with La Crosse virus was below 4.60 in each case. In the case of `COc1cc(NC(=S)NC(=O)c2ccc(C(C)(C)C)cc2)ccc1NC(C)=O`, the pEC50 in the test on Vaccinia virus is 5.49; in the test on La Crosse virus, 5.87. The matching figures for `CC(C)(C)c1ccc(C(=O)NC(=S)Nc2cccc(CN)c2)cc1`: below 4.60 and below 4.60. The matching figures for `CC(C)(C)c1ccc(C(=O)NC(=S)Nc2ccc(NC(=O)c3ccccc3Cl)c(O)c2)cc1`: 6.64 and 6.68. The matching figures for `CC(C)(C)c1ccc(C(=O)NC(=S)Nc2ccc(NC(=O)c3ccccc3Cl)c(N)c2)cc1`: 7.22 and 7.30. Take `COc1cc(NC(=S)NC(=O)c2ccc(C(C)(C)C)cc2)ccc1NC(=O)CCCCN(C)C`: the pEC50 in the test on Vaccinia virus and in the test on La Crosse virus was below 4.60 each time. `CCS/C(=N\C(=O)c1ccc(C(C)(C)C)cc1)Nc1ccccc1Cl`: the pEC50 in the test on Vaccinia virus was 5.72; in the test with La Crosse virus, 6.29. The matching figures for `COc1cc(NC(=S)NC(=O)c2ccc(C(C)(C)C)cc2)ccc1NC(=O)c1cccc(N)c1`: below 4.60 and below 4.60. For `CC(C)(C)c1ccc(C(=O)NC(=S)Nc2ccc([N+](=O)[O-])cc2)cc1`, in that order: 5.39 and below 4.60.

Regarding `COc1ccc(NC(=S)NC(=O)c2ccc(C(C)(C)C)cc2)cc1NC(=O)c1ccccc1Cl`, the pEC50 in the test with Vaccinia virus and in the test with La Crosse virus was below 4.60 each time.

As to `CC(C)(C)c1ccc(C(=O)NC(=S)Nc2ccc(Nc3ccccc3)cc2)cc1`, the pEC50 is 6.09 with Vaccinia virus and 5.77 in the test with La Crosse virus. As for `CC(C)(C)c1ccc(C(=O)NC(=S)Nc2cc(C(F)(F)F)ccc2Cl)cc1`, the pEC50 was 6.00 in the test with Vaccinia virus and 6.22 in the test with La Crosse virus.

On to `CN(C)c1ccc(NC(=S)NC(=O)c2ccc(C(C)(C)C)cc2)cc1`, for which, in the test on Vaccinia virus, the negative-log EC50 (pEC50) is 5.61.

Broadly, the pEC50 is the EC50 on a negative log10 scale, so that one unit is a factor of ten.
